The text below walks through data of patent US20140088085A1, “Substituted Benzoazepines As Toll-Like Receptor Modulators” (ARRAY BIOPHARMA, INC, priority 2011, published 2014).

SMILES strings stand for the structures. Where two headings read alike, the source gives them in different places.

Test [1] has as its system human peripheral blood mononuclear cells (PBMCs). Description: Human PBMC assay: IL-8 production stimulated with CL075 (ELISA). Conditions: 3 to 1000 nM antagonist 2 h, then CL075 100 ng/mL (400 nM) overnight, FIG. 1, one donor. In kind it is cell-based. Here is the method: PBMCs contain a mixture of cells including monocytes and myeloid dendritic cells (mDCs) that express TLR8. […] The ability of TLR8 antagonists to inhibit […] production in human PBMCs was evaluated. […] Data shown in FIG. 1 are a representative experiment from one donor evaluated in duplicate culture wells. Increasing concentrations (from 3 to 1000 nM) of Compounds 3348, 2987, 3261, 3387, and 3448 (labeled as VTX-3348, VTX-2987, VTX-3261, VTX-3387, VTX-3448 in FIG. 1) were added to human PBMCs (50,000 cells/well in RPMI) and incubated for 2 hours in a 37° C. humidified CO2 incubator. […] At the end of the incubation, cells were centrifuged and cell culture supernatants were analyzed for IL-8 by ELISA (eBiosciene kit) per the manufacturer's instructions. The absorbance (OD 450 nm) representative of IL-8 levels is shown on the y-axis of FIG. 1.
The experiment shown in FIG. 1 was repeated in multiple donors and with additional TLR8 antagonist molecules (see FIG. 2). […] Percent inhibition is shown on the y-axis and concentrations of TLR8 antagonists (3-1000 nM) are shown on the x-axis in FIG. 2.

Another test addresses T1, hTLR8 (Homo sapiens, UniProt Q9NR97).
T1 construct: host or cells: HEK293 cells stably transfected with hTLR8
T1 sequence (Q9NR97 27-1041): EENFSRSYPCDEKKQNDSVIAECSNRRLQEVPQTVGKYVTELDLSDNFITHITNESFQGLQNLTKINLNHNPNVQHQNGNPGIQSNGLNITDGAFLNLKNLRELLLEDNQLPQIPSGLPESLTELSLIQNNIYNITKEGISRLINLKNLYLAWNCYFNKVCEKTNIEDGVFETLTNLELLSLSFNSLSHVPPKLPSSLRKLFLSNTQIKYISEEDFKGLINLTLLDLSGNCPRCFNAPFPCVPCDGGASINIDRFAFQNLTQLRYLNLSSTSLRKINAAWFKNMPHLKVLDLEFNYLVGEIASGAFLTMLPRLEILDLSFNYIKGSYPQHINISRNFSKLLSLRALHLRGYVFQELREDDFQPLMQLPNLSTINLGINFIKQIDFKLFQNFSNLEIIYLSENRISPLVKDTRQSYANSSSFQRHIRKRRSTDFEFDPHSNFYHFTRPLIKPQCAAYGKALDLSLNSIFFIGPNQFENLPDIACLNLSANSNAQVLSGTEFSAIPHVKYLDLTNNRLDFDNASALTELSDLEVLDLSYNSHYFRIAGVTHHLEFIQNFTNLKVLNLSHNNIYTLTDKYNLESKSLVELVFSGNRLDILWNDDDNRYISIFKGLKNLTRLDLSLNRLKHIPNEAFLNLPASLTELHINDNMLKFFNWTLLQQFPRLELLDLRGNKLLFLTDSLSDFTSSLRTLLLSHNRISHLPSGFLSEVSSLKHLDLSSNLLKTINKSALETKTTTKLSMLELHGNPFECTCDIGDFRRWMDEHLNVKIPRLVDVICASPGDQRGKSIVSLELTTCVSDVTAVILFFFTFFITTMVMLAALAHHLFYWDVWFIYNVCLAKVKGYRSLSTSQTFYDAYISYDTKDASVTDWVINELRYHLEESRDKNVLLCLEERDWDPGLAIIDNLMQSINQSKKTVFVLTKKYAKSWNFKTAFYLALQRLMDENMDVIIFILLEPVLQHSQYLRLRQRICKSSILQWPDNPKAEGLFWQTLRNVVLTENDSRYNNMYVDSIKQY
Description: HEK-293 hTLR8 transfectant NF-κB SEAP reporter antagonist assay. In kind it is cell-based. Here is the method: The HEK-293 hTLR transfectant assay employs HEK293 cells stably transfected with various hTLRs and transiently co-transfected with a plasmid containing an NF-κB driven secreted embryonic alkaline phosphate (SEAP) reporter gene. Stimulation of TLRs activates their downstream signaling pathways and induces nuclear translocation of the transcription factor NF-κB. Reporter gene activity is then measured using a spectrophotometric assay.
For the TLR8 antagonist assays, cells are transiently transfected with the reporter gene on Day 1 per the supplier's instructions. Antagonist compounds are added to the cultures on Day 2 followed by addition of a TLR8 agonist approximately 2 hours later. Cultures are incubated overnight and SEAP activity is measured on Day 3.
In a typical assay, 50,000 HEK239 hTLR8 cells are seeded per culture well and transiently transfected with the SEAP reporter gene. Antagonists are added to cultures in culture medium and […] DMSO over a concentration range of 0.1 nanomolar to 10 micromolar. TLR8 agonists are added to cultures 2 hours later at a fixed concentration (e.g., 1 micromolar or 10 micromolar of Compound A) and cultures are then incubated for 16-24 hrs at 37° C. in a humidified CO incubator. Antagonists are also evaluated for activity in the absence of agonist.
TLR8 antagonist activity at 25 μM is presented in Table 2, where + denotes a % inhibition of 20-39, ++ denotes a % inhibition of 40-59, +++ denotes a % inhibition of 60-79 and ++++ denotes a % inhibition of 80-99. In some cases, antagonist activity was assessed at lower concentrations, for example, at 8.3, 2.8, or less than 1 μM.
TLR8 antagonist activity was measured in a hTLR8 assay format, measuring IC50 values. Compounds were incubated with hTLR8 reporter cells for two hours, then 1 μM Compound A was added to induce TLR8 overnight. IC50 were then calculated.

Where [2] appears, read: IC50, nM, vs. VTX-378 1 μM, agonist VTX-378 at 1 μM.

On to `CCCN(CCC)C(=O)C1=Cc2cc(-c3ccc(C(=O)N4CCCC4)cc3)ccc2N=C(N)C1` [Compound 2987], for which, in test [1], the “inhibition of IL-8 production” value was “reduced in a dose dependent fashion”. The IC50 is less than 1000 nM at hTLR8 (setting [2]) and 1000 to 10000 nM at hTLR8 (IC50, nM, vs. VTX-378 10 μM, agonist VTX-378 at 10 μM).

Regarding `CCOC(=O)C1=Cc2cc(-c3ccc(C(=O)N4CCCC4)cc3)ccc2N=C(N)C1(C)C` [Compound 3348], the “inhibition of IL-8 production” value in test [1] is recorded as “reduced in a dose dependent fashion”. Also, the concentration for half-maximal inhibition (IC50) was less than 1000 nM at hTLR8 (IC50, nM, vs. 3M002 10 μM, agonist 3M002 at 10 μM); less than 1000 nM on hTLR8 (setting [2]); less than 1000 nM at hTLR8 (agonist VTX-378 at 0.5 μM, read-out: IC50, nM, vs. VTX-378 0.5 μM).
